Tests used:
semaphorin3A = molecular target: T1, semaphorin3A (Homo sapiens, UniProt Q14563); assay: Growth cone collapse assay, E14 rat DRG; type: cell-based; conditions: read-out: semaphorin3A inhibiting activity, IC50
T1 sequence (Q14563 21-771): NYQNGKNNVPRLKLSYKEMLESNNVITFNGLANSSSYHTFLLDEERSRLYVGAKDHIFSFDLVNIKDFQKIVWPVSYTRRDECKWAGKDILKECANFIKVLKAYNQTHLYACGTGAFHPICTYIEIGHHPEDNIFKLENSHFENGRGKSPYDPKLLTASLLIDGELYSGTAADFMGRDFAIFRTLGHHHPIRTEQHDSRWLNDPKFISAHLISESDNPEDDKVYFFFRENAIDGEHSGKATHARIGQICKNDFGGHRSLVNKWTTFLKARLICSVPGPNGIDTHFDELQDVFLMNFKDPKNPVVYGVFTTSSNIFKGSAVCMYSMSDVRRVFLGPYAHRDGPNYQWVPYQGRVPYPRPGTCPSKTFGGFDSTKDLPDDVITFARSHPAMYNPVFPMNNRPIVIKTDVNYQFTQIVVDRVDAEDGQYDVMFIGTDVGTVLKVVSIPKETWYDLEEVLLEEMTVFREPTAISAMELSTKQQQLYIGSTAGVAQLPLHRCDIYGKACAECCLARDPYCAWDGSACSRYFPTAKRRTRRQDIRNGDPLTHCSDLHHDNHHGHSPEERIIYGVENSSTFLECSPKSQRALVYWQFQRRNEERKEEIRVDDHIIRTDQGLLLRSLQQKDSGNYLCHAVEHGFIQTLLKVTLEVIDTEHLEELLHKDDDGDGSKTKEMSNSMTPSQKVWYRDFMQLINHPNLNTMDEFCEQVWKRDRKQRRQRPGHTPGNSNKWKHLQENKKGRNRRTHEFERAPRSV
Method: The growth cone collapse assay and collagen co-culture experiments were performed as previously described. To examine the effects of SM-345431-silicone, small pieces (2 × 1 × 0.3 mm; approximately 1 mg containing 1 μg of SM-345431) of the SM-345431-silicone or control-silicone were placed in a collagen gel adjacent to E8 chick DRGs and COS7 cell aggregates, as shown in Figure 1C.

Chemokine CCR5 = Chemokine CCR5 (Homo sapiens, UniProt P51681); assay: Pharmacological profile: receptor binding assay
Excerpt: (§1) Table 1 Pharmacological profile of SM-345431 (part 1) | column: IC50 (μm)

Chemokine CXCR2 (IL-8B) = Chemokine CXCR2 (IL-8B) (Homo sapiens, UniProt P25025); assay: Pharmacological profile: receptor binding assay
Excerpt: as §1

Chemokine CCR2B = Chemokine CCR2B (Homo sapiens, UniProt P41597); assay: Pharmacological profile: receptor binding assay
Excerpt: as §1

Glucocorticoid = Glucocorticoid (Homo sapiens, UniProt P04150); assay: Pharmacological profile: receptor binding assay
Excerpt: as §1

Chemokine CCR4 = Chemokine CCR4 (Homo sapiens, UniProt P51679); assay: Pharmacological profile: receptor binding assay
Excerpt: as §1

Chemokine CCR1 = Chemokine CCR1 (Homo sapiens, UniProt P32246); assay: Pharmacological profile: receptor binding assay
Excerpt: as §1

[1] = molecular target: Tumor Necrosis Factor (TNF), Non-selective; assay: Pharmacological profile: receptor binding assay
Excerpt: as §1

SCT adult rats = assay: Remyelination after SCT (MBP/GAP43 immunostaining, electron microscopy); type: in vivo, rat
Method: Rats were randomly divided into the following three experimental groups: 1) untrained + placebo, 2) untrained + SM-345431 and 3) trained + SM-345431. SCT was performed, and SM-345431 or placebo was administered at the lesion site via the newly developed DDS, which is described in detail below. Starting 1 week post-injury, treadmill training commenced with a BSS. Kinematic tests were performed monthly for 3 months after SCT using a rodent robotic device (Rodent robot 3000, Robomedica Inc.) that primarily assessed the performance of plantar stepping on a treadmill. Treadmill training was continued throughout the experimental period.
A total of 53 adult female Sprague-Dawley rats (200-250 g, 10-12 weeks old) were used in this study (3 rats died during the experimental period and were excluded from the statistical analysis). All procedures were approved by the experimental animal care committee of Keio University, School of Medicine and Murayama Medical Center (approval #12-8). All rats were anesthetized with an intraperitoneal injection of ketamine (100 mg/kg)/xylazine (10 mg/kg). The spinal cord at the level of the T10 lamina was exposed by T10 laminectomy, and the dorsal dura mater was opened. […] Kinematic data were recorded using similar procedures prior to re-transection surgery (on the same day) and on the day following re-transection surgery. […]

Chemokine CCR5, sequence (P51681 whole entry): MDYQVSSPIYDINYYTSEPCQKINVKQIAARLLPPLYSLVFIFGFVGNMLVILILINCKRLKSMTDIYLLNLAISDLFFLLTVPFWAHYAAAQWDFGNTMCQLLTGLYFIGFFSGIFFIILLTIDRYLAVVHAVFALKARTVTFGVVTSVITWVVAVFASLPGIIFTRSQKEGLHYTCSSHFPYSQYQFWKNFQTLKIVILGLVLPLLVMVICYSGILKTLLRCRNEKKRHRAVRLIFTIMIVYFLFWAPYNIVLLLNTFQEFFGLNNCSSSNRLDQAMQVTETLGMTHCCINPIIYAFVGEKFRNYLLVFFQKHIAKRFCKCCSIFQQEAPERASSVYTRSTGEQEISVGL
Chemokine CCR2B, sequence (P41597 1-360 isoform P41597-2): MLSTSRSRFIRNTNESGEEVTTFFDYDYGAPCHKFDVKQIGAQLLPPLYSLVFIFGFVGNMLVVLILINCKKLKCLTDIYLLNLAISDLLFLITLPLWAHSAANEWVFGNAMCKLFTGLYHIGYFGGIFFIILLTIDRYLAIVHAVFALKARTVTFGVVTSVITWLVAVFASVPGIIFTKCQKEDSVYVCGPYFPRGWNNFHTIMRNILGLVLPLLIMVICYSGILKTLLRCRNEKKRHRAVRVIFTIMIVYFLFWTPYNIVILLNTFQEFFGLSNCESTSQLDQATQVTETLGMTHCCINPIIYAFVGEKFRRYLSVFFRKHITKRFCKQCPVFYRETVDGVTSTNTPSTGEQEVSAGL
Chemokine CCR4, sequence (P51679 whole entry): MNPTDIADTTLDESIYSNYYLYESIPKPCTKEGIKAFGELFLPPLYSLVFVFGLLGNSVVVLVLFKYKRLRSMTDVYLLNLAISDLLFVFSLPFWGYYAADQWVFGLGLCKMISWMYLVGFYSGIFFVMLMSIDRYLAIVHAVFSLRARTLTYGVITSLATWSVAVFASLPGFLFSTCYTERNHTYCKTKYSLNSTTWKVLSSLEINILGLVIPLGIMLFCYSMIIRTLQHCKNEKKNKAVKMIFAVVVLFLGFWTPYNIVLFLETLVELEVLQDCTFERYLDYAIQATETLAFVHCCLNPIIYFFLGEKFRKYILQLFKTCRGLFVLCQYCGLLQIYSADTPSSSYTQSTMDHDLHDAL
Chemokine CCR1, sequence (P32246 whole entry): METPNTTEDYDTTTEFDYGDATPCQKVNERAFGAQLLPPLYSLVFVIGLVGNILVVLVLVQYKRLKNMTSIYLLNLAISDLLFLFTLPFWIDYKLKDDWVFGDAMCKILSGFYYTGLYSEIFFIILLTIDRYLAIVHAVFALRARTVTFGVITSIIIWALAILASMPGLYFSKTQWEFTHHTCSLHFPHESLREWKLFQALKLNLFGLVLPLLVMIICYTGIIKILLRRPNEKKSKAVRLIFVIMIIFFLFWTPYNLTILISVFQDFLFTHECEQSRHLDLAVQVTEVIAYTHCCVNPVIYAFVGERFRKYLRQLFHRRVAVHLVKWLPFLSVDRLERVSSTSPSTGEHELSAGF
Chemokine CXCR2 (IL-8B), sequence (P25025 whole entry): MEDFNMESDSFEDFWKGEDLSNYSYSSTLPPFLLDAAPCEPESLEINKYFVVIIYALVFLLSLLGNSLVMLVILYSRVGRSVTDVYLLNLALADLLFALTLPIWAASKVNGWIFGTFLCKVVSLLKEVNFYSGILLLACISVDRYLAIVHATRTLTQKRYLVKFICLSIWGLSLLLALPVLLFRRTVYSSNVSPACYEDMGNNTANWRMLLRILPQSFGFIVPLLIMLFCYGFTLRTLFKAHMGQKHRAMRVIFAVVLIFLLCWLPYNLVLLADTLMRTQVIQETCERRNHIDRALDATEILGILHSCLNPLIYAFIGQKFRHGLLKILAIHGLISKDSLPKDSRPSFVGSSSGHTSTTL
Glucocorticoid, sequence (P04150 whole entry): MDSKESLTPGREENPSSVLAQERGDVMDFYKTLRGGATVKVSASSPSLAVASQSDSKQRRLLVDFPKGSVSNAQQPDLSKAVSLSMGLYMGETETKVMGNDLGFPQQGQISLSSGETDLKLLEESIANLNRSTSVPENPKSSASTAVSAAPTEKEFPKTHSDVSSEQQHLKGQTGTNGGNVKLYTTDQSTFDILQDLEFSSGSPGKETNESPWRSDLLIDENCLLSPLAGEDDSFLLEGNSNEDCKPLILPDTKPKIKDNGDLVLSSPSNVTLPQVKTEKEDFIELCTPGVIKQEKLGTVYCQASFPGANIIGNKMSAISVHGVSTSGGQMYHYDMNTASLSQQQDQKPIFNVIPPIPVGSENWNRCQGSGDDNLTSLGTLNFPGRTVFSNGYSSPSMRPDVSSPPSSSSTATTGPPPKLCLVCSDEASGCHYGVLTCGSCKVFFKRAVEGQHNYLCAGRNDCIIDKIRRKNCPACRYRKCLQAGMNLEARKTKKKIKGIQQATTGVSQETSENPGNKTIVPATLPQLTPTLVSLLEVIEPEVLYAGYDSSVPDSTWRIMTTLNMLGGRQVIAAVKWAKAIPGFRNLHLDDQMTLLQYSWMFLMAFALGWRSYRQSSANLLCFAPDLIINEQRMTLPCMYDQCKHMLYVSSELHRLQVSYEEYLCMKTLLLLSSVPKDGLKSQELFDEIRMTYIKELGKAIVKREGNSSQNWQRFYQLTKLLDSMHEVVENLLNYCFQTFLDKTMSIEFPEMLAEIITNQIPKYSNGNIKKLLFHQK

## CC(=O)c1cc2c(=O)c3c(C(=O)O)c(O)c(O)cc3oc2c(C(C)=O)c1-c1coc2cc(O)c(O)c(C(=O)O)c2c1=O [SM-345431, Vinaxanthone]
semaphorin3A
  IC50: 0.1 to 0.2 µM
Chemokine CCR5
  IC50: > 10 µM
Chemokine CXCR2 (IL-8B)
  IC50: > 10 µM
Chemokine CCR2B
  IC50: > 10 µM
Glucocorticoid
  IC50: > 10 µM
Chemokine CCR4
  IC50: > 10 µM
Chemokine CCR1
  IC50: > 10 µM
[1]
  IC50: > 10 µM
SCT adult rats; SM-345431 alone, 12 weeks post-injury
  remyelination of axons (myelinated GAP43-positive axons at the lesion site): significantly enhanced the remyelination of axons
SCT adult rats; SM-345431 plus treadmill training, compared with SM-345431 alone
  remyelination of axons (myelinated GAP43-positive axons at the lesion site): additional remyelination was not observed

— article PMC4008261, “Rewiring of regenerated axons by combining treadmill training with semaphorin3A inhibition” (Molecular Brain, 2014)
